Drawing on patent US12077503B2, “Substituted cyclic amides and their use as herbicides” (FMC CORPORATION, priority 2015, dated 2024), this text covers pest or weed control and melting point for 8 compounds.

Data set [1] has as its system ragweed (common ragweed, Ambrosia elatior). Description: Test A preemergence. Format: in vivo. Particulars: Ambrosia artemisiifolia, pre-emergence, 240 h; for pest or weed control at 125 g/ha: 125 g ai/ha; for pest or weed control at 500 g/ha: 500 g ai/ha. In outline: (§1)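 Compounds were formulated in a non-phytotoxic solvent mixture with surfactant and applied as a preemergence directed soil spray after seeding, or sprayed postemergence over plants 2 to 10 cm tall at the one- to two-leaf stage. Evaluation after about 10 d compared treated with untreated controls, using a scale from 0 (no effect) to 100 (complete control).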

Data set [2] concerns barnyardgrass (Echinochloa crus-galli). The data set can be described thus: Test A preemergence. Particulars: Echinochloa crus-galli, pre-emergence, 240 h; for pest or weed control at 125 g/ha: 125 g ai/ha; for pest or weed control at 500 g/ha: 500 g ai/ha. Format: in vivo. The procedure, abridged:
as §1

The subject of data set [3] is pigweed (Amaranthus retroflexus). The data set can be described thus: Test A preemergence. Format: in vivo. Conditions: Amaranthus retroflexus, pre-emergence, 240 h; for pest or weed control at 125 g/ha: 125 g ai/ha; for pest or weed control at 500 g/ha: 500 g ai/ha.
In data set [4] the test system is giant foxtail (Setaria faberii). The data set can be described thus: Test A preemergence. Format: in vivo. Conditions: Setaria faberi, pre-emergence, 240 h; for pest or weed control at 125 g/ha: 125 g ai/ha; for pest or weed control at 500 g/ha: 500 g ai/ha. In outline:
as §1

The test system of data set [5] is Kochia (Kochia scoparia). Description: Test A preemergence. Format: in vivo. Conditions: Bassia scoparia, pre-emergence, 240 h; for pest or weed control at 125 g/ha: 125 g ai/ha; for pest or weed control at 500 g/ha: 500 g ai/ha. In outline: as §1
[6] abbreviates: preemergence, 0 to 100 scale where 0 is no effect and 100 is complete control, read-out: Ragweed plant response rating.
The mark [7] stands for this setting: Preemergence, visual injury vs untreated controls after approximately 10 d, read-out: Ragweed plant response rating (0 to 100 scale where 0 is no effect and 100 is complete control).
Setting [8] is: preemergence, 0 to 100 scale where 0 is no effect and 100 is complete control, read-out: Barnyardgrass plant response rating.
The mark [9] stands for this setting: Preemergence, visual injury vs untreated controls after approximately 10 d, read-out: Barnyardgrass plant response rating (0 to 100 scale where 0 is no effect and 100 is complete control).
The mark [10] stands for this setting: preemergence, 0 to 100 scale where 0 is no effect and 100 is complete control, read-out: Pigweed plant response rating.
Setting [11] is: Preemergence, visual injury vs untreated controls after approximately 10 d, read-out: Pigweed plant response rating (0 to 100 scale where 0 is no effect and 100 is complete control).
[12] abbreviates: preemergence, 0 to 100 scale where 0 is no effect and 100 is complete control, read-out: Foxtail, Giant plant response rating.
Setting [13] is: Preemergence, visual injury vs untreated controls after approximately 10 d, read-out: Foxtail, Giant plant response rating (0 to 100 scale where 0 is no effect and 100 is complete control).
The mark [14] stands for this setting: preemergence, 0 to 100 scale where 0 is no effect and 100 is complete control, read-out: Kochia plant response rating.
The mark [15] stands for this setting: Preemergence, visual injury vs untreated controls after approximately 10 d, read-out: Kochia plant response rating (0 to 100 scale where 0 is no effect and 100 is complete control).
Setting [16] is: Preemergence, visual injury rating after approximately 10 d, read-out: Ragweed plant response rating (0 to 100 scale, 0 is no effect, 100 is complete control).
The mark [17] stands for this setting: preemergence, visual injury rating about 10 d after treatment, 0 to 100 scale (0 no effect, 100 complete control), read-out: Ragweed plant response rating.
Where [18] appears, read: Preemergence, visual injury rating after approximately 10 d, read-out: Barnyardgrass plant response rating (0 to 100 scale, 0 is no effect, 100 is complete control).
Setting [19] is: preemergence, visual injury rating about 10 d after treatment, 0 to 100 scale (0 no effect, 100 complete control), read-out: Barnyardgrass plant response rating.
Where [20] appears, read: Preemergence, visual injury rating after approximately 10 d, read-out: Pigweed plant response rating (0 to 100 scale, 0 is no effect, 100 is complete control).
The mark [21] stands for this setting: preemergence, visual injury rating about 10 d after treatment, 0 to 100 scale (0 no effect, 100 complete control), read-out: Pigweed plant response rating.
Setting [22] is: Preemergence, visual injury rating after approximately 10 d, read-out: Foxtail, Giant plant response rating (0 to 100 scale, 0 is no effect, 100 is complete control).
[23] abbreviates: preemergence, visual injury rating about 10 d after treatment, 0 to 100 scale (0 no effect, 100 complete control), read-out: Foxtail, Giant plant response rating.
Where [24] appears, read: Preemergence, visual injury rating after approximately 10 d, read-out: Kochia plant response rating (0 to 100 scale, 0 is no effect, 100 is complete control).
The mark [25] stands for this setting: preemergence, visual injury rating about 10 d after treatment, 0 to 100 scale (0 no effect, 100 complete control), read-out: Kochia plant response rating.
Where [26] appears, read: preemergence, 0 to 100 scale where 0 is no effect and 100 is complete control, approx. 10 d, read-out: Ragweed plant response rating.
[27] abbreviates: preemergence, 0 to 100 scale where 0 is no effect and 100 is complete control, approx. 10 d, read-out: Barnyardgrass plant response rating.
Where [28] appears, read: preemergence, 0 to 100 scale where 0 is no effect and 100 is complete control, approx. 10 d, read-out: Pigweed plant response rating.
Where [29] appears, read: preemergence, 0 to 100 scale where 0 is no effect and 100 is complete control, approx. 10 d, read-out: Foxtail, Giant plant response rating.
The mark [30] stands for this setting: preemergence, 0 to 100 scale where 0 is no effect and 100 is complete control, approx. 10 d, read-out: Kochia plant response rating.

Structures are written as SMILES. Where two headings read alike, the source gives them in different places.

`COc1cccc(C2CN(C)C(=O)C2C(=O)Nc2cccc(F)c2F)c1` (stereo not drawn) [Compound 886] yielded a melting point of 137 to 140 °C. For the same compound, the pest or weed control at 125 g/ha in data set [1] (setting [6]) is 0%. Moreover, the pest or weed control at 500 g/ha in data set [1] (setting [7]) was found to be 50%. In addition, the pest or weed control at 125 g/ha in data set [2] (setting [8]) is 90%. Also, in data set [2] (setting [9]), the pest or weed control at 500 g/ha stood at 90%. Moreover, in data set [3] (setting [10]), the pest or weed control at 125 g/ha turned out to be 0%. The pest or weed control at 500 g/ha in data set [3] (setting [11]) was determined as 0%. The pest or weed control at 125 g/ha in data set [4] (setting [12]) was 90%. The pest or weed control at 500 g/ha in data set [4] (setting [13]) is 100%. Besides, the pest or weed control at 125 g/ha in data set [5] (setting [14]) turned out to be 80%. For the same compound, the pest or weed control at 500 g/ha in data set [5] (setting [15]) came out at 90%.

`CCc1cc([C@H]2CNC(=O)[C@@H]2C(=O)Nc2ccccc2F)cs1` [Compound 913] showed a melting point of 96 to 100 °C. In addition, the pest or weed control at 125 g/ha in data set [1] (setting [6]) was 0%. For the same compound, the pest or weed control at 500 g/ha in data set [1] (setting [7]) was determined as 60%. Further, the pest or weed control at 125 g/ha in data set [2] (setting [8]) was found to be 80%. In addition, the pest or weed control at 500 g/ha in data set [2] (setting [9]) is 90%. Further, in data set [3] (setting [10]), the pest or weed control at 125 g/ha was 0%. In addition, the pest or weed control at 500 g/ha in data set [3] (setting [11]) worked out at 0%. The pest or weed control at 125 g/ha in data set [4] (setting [12]) stood at 50%. Besides, in data set [4] (setting [13]), the pest or weed control at 500 g/ha was found to be 90%. Further, the pest or weed control at 125 g/ha in data set [5] (setting [14]) was 0%. Further, in data set [5] (setting [15]), the pest or weed control at 500 g/ha stood at 40%.

`O=C1NC[C@H](c2cc(C(F)(F)F)ccn2)[C@H]1C(=O)Nc1ccccc1F` [Compound 948] gave a melting point of 115 to 119 °C. In data set [1] (setting [16]), the pest or weed control at 125 g/ha was found to be 0%. The pest or weed control at 500 g/ha in data set [1] (setting [17]) amounted to 0%. Also, the pest or weed control at 125 g/ha in data set [2] (setting [18]) turned out to be 70%. Moreover, the pest or weed control at 500 g/ha in data set [2] (setting [19]) is 90%. Also, the pest or weed control at 125 g/ha in data set [3] (setting [20]) came to 0%. Further, the pest or weed control at 500 g/ha in data set [3] (setting [21]) was 0%. Also, the pest or weed control at 125 g/ha in data set [4] (setting [22]) was 70%. In data set [4] (setting [23]), the pest or weed control at 500 g/ha was found to be 90%. In addition, the pest or weed control at 125 g/ha in data set [5] (setting [24]) was found to be 0%. Also, the pest or weed control at 500 g/ha in data set [5] (setting [25]) was 0%.

`Cc1ccc([C@H]2CCNC(=O)[C@@H]2C(=O)Nc2cccc(F)c2F)cc1` [Compound 973]: the melting point was 174 to 176 °C. In addition, in data set [1] (setting [16]), the pest or weed control at 125 g/ha was 0%. The pest or weed control at 500 g/ha in data set [1] (setting [17]) stood at 70%. Besides, in data set [2] (setting [18]), the pest or weed control at 125 g/ha was determined as 90%. Also, the pest or weed control at 500 g/ha in data set [2] (setting [19]) is 90%. Also, the pest or weed control at 125 g/ha in data set [3] (setting [20]) is 0%. Moreover, in data set [3] (setting [21]), the pest or weed control at 500 g/ha came to 0%. In addition, the pest or weed control at 125 g/ha in data set [4] (setting [22]) was 90%. Besides, the pest or weed control at 500 g/ha in data set [4] (setting [23]) is 90%. Further, the pest or weed control at 125 g/ha in data set [5] (setting [24]) came out at 0%. Moreover, the pest or weed control at 500 g/ha in data set [5] (setting [25]) was 60%.

With `CN1C[C@H](c2ccc3c(c2)OCO3)[C@@H](C(=O)Nc2cccc(F)c2F)C1=O` [Compound 1126], the pest or weed control at 125 g/ha in data set [1] (setting [26]) came out at 60%; in data set [2] (setting [27]) it was 90%; in data set [3] (setting [28]) it was 30%; in data set [4] (setting [29]), 90%; in data set [5] (setting [30]), 70%. Moreover, the pest or weed control at 500 g/ha in data set [1] (setting [6]) worked out at 50%; in data set [2] (setting [8]), 90%; in data set [3] (setting [10]), 60%; in data set [4] (setting [12]), 90%; in data set [5] (setting [14]) it was 80%.

On to `O=C1NC[C@H](c2ccc3c(c2)OCO3)[C@H]1C(=O)Nc1cccc(F)c1C(F)(F)F` [Compound 1127], for which the pest or weed control at 125 g/ha in data set [1] (setting [26]), in data set [2] (setting [27]), in data set [3] (setting [28]), in data set [4] (setting [29]) and in data set [5] (setting [30]) was 0% in each case. The pest or weed control at 500 g/ha in data set [1] (setting [6]) worked out at 0%; in data set [2] (setting [8]) it was 30%; in data set [3] (setting [10]) it was 0%; in data set [4] (setting [12]), 70%; in data set [5] (setting [14]), 0%.

Turning to `O=C1NC[C@H](c2ccc(F)c(OC(F)(F)C(F)F)c2)[C@H]1C(=O)Nc1cccc(F)c1F` [Compound 1131], the pest or weed control at 125 g/ha in data set [1] (setting [26]) turned out to be 60%; in data set [2] (setting [27]), 90%; in data set [3] (setting [28]) it was 80%; in data set [4] (setting [29]) it was 90%; in data set [5] (setting [30]), 100%. For the same compound, the pest or weed control at 500 g/ha in data set [1] (setting [6]) amounted to 80%; in data set [2] (setting [8]) it was 90%; in data set [3] (setting [10]), 90%; in data set [4] (setting [12]), 90%; in data set [5] (setting [14]), 90%.

Turning to `Cc1nc([C@H]2CNC(=O)[C@@H]2C(=O)Nc2cccc(F)c2F)cs1` [Compound 1180], the pest or weed control at 125 g/ha was 0% in data set [1] (setting [26]); 20% in data set [2] (setting [27]); 0% in data set [3] (setting [28]); 0% in data set [4] (setting [29]); 0% in data set [5] (setting [30]). In addition, the pest or weed control at 500 g/ha in data set [1] (setting [6]) was found to be 0%; in data set [2] (setting [8]) it was 70%; in data set [3] (setting [10]) it was 0%; in data set [4] (setting [12]), 50%; in data set [5] (setting [14]) it was 30%.

For orientation: melting point means the temperature, or range, at which the solid turns liquid.
